Test results: patent US4493830A, “Method for the treatment of idiopathic headache attacks, in particular migraine and cluster headache” (Istituto Farmacologico Serono of Rome, priority 1983, dated 1985)
Structures can show the parent of a compound that is named as a salt.

System: cluster headache attacks
Assay: Double-blind randomized trial of treatment of cluster headache attacks in hospitalized patients
Assay type: in vivo
Method: Six consenting patients, suffering from cluster headache, were hospitalized. Two presented with a chronic state (more than one year) while the other four were in an attack stage at the moment of entering hospital. The patients received no other pharmaceuticals during the four days prior to commencing the study.
In each patient attacks lasted an average of 1-2 hours.
At the beginning of the attack, 10 minutes after the onset of pain, the patients received one of the following treatments:
500 mcg Somatostatin in 50 ml physiological solution, i.v.;
1 ml physiological solution i.m.;
50 ml physiological solution i.v.;
250 mcg Ergotamine Tartrate in 1 ml physiological solution i.m.
Duration of venous infusion was 20 minutes (50 drops per min.), and was started simultaneously with the i.m. injection. Treatments and patients were randomized and the trial was carried out in double blind.
In total, 9 attacks were treated for each patient, who received treatments (a) (b) or (c) 3 times; in this way, each treatment was used 18 times.
Pain intensity was ascertained every 10 minutes on a visible scale. Values were recorded on the ordinate against the time which was recorded on the abscissa.
3 parameters were used for statistical assessment; maximum intensity of pain expressed in arbitrary units; duration of pain expressed in minutes; area below the curve expressed in arbitrary units. During infusion with Somatostatin, blood pressure and pulse rates were recorded every 10 minutes for an hour.

[1] = versus physiological solution, Somatostatin 500 mcg i.v. infusion or Ergotamine Tartrate 250 mcg i.m.

Compound | Variations in blood pressure or pulse rates during infusion (500 mcg i.v. infusion, recorded every 10 minutes for an hour) | Incidence of side-effects as compared with Ergotamine (human, in vivo) | Reduction of pain duration as compared with placebo (Somatostatin 500 mcg i.v. infusion or Ergotamine Tartrate 250 mcg i.m.) | Maximum pain intensity (Somatostatin 500 mcg i.v. infusion or Ergotamine Tartrate 250 mcg i.m., physiological solution 7.1±0.3) | Area under the pain curve (Somatostatin 500 mcg i.v. infusion or Ergotamine Tartrate 250 mcg i.m., physiological solution 43.8±6.2) | Duration of pain (cluster headache patients, Somatostatin 500 mcg i.v. infusion over 20 min or Ergotamine Tartrate 250 mcg i.m., 18 attacks per treatment, physiological solution 93±10) | Reduction of maximum pain intensity [1] | Reduction of the pain area [1]
C[C@H](N)C(=O)NCC(=O)N[C@H]1CSSC[C@@H](C(=O)O)NC(=O)[C@H](CO)NC(=O)[C@H]([C@@H](C)O)NC(=O)[C@H](Cc2ccccc2)NC(=O)[C@H]([C@@H](C)O)NC(=O)[C@H](CCCCN)NC(=O)[C@H](Cc2c[nH]c3ccccc23)NC(=O)[C@H](Cc2ccccc2)NC(=O)[C@H](Cc2ccccc2)NC(=O)[C@H](CC(N)=O)NC(=O)[C@H](CCCCN)NC1=O [Somatostatin] | nor were there significant variations | minor incidence of side-effects | – | – | – | – | – | –
CN1C[C@H](C(=O)N[C@]2(C)O[C@@]3(O)[C@@H]4CCCN4C(=O)[C@H](Cc4ccccc4)N3C2=O)C=C2c3cccc4[nH]cc(c34)C[C@H]21 [Ergotamine, Ergotamine Tartrate] | – | – | 41% | 6.2±0.3 arbitrary units | 23.3±3.1 arbitrary units | 55 ± 8 min | 13% | 47%
